Experimental findings from patent US7550589B2, “6-(2-alkyl-phenyl)-pyrido[2,3-D]pyrimidines useful as protein kinase inhibitors” (Hoffman-La Roche Inc., priority 2004, dated 2009) are described below.

pIC50: −log10 of the molar value.

One test concerns the target T1, Src (p60^c-src) (Homo sapiens, UniProt P12931).
T1 construct: purchased UBI, Upstate Biotech, Inc
The experiment in a line: SRC-Inhibitor-Assay, time-resolved fluorescence kinase assay (Src). The class given is biochemical. As to conditions: ATP 5 μM; peptide 10 μM; enzyme 2.5 U/ml; pre-incubated 15 min at 15° C. The text has this:
(§1) The activity of the compounds according to this invention as inhibitors for the src-family tyrosine kinases was shown by using the following assay.
(§2) SRC-Inhibitor-Assay Parameters:
(§3) Eu-labelled Phosphotyrosine Antibody: for Lck Cisbio Mab PT66-K, • for Src EG&G Wallac PT66 Eu-W1024 (all commercially available).
(§4) Peptides: Ro: NH2-A-E-E-E-I-Y-G-E-F-E-A-K-K-K-K-CONH2, and • Ja133-Ro: Ja133-G-Aminocaprylic acid-A-E-E-E-I-Y-G-E-F-E-A-K-K-K-K-CONH2, wherein Ja133 is LightCycler-Red 640-N-hydroxy succinimide ester; • whereby both peptides were synthesized by an optimized solid phase peptide synthesis protocol (Merrifield, Fed. Proc. Fed. Amer. Soc. Exp. Biol. 21 (1962) 412) on a Zinsser SMP350 peptide synthesizer. Shortly, the peptide was assembled on 160 mg (22.8 μmol scale) of a Rink-Linker modified polystyrene solid phase by repeatedly conjugating an twenty fold excess of amino acids each protected by temporary piperidine labile Fmoc- and permanent acid labile tert-Bu—, BOC- and O-tert-Bu-groups depending on the side chain function. The substrate sequence AEEEIYGEFEAKKKK was N-terminal additionally mounted with the spacer amino acids Aminocaprylic acid and Glycin. After cleavage of the N-terminal temporary protecting group the still attached and protected peptide was labeled with a 1.5 fold amount of LightCycler-Red 640-N-hydroxy succinimide ester (purchased from Roche Diagnostics GmbH) and triethylamine. After 3 hrs. the resin was washed with Dimethylformamide and Isopropanol until the eluates of the blue resin got colourless. […] The substrate was finally isolated by a preparative reverse phase HPLC purification. The purification yielded 12.2 mg RP-HPLC single peak pure blue material (lyophilisate). The identity was proven by MALDI mass spectroscopy [2720.0].
(§5) Enzymes: Upstate Lck (p56^lck, active), Upstate Src (p60^c-src, partially purified) were purchased from UBI, Upstate Biotech, Inc.
(§6) Time-resolved Fluorescence Assay: Reader: Perkin Elmer, Wallac Viktor 1420-040 multilabel counter; Liquid handling system: Beckman Coulter, Biomek 2000.
(§7) ATP, Tween™ 20, 4-(2-hydroxyethyl)-1-piperazineethanesulfonic acid (HEPES) were purchased from Roche Molecular Biochemicals, MgCl2 and MnCl2 were purchased from Merck Eurolab, Tris(2-carboxyethyl)phosphine hydrochloride (TCEP) was purchased from Pierce, 384 Well low volume fluorescence plates was purchased from Falcon.
(§8) At first the enzyme is pre-incubated for 15 min. at 15° C. in aqueous solution with corresponding amounts of inhibitors according to this invention. Then the phosphorylation reaction is started by adding a reaction mixture, containing ATP, Peptide and PT66, and subsequent shaking. The proceeding of this reaction is immediately monitored using time resolved fluorescence spectroscopy in a suitable well plate reader.
(§9) The IC50-values can be obtained from the reaction rates by using a non-linear curve fit (XLfit software (ID Business Solution Ltd., Guilford, Surrey, UK))

Another test deals with T2, Lck (p56^lck) (Homo sapiens, UniProt P06239).
T2 construct: purchased UBI, Upstate Biotech, Inc
T2 sequence (P06239 whole entry, species assumed): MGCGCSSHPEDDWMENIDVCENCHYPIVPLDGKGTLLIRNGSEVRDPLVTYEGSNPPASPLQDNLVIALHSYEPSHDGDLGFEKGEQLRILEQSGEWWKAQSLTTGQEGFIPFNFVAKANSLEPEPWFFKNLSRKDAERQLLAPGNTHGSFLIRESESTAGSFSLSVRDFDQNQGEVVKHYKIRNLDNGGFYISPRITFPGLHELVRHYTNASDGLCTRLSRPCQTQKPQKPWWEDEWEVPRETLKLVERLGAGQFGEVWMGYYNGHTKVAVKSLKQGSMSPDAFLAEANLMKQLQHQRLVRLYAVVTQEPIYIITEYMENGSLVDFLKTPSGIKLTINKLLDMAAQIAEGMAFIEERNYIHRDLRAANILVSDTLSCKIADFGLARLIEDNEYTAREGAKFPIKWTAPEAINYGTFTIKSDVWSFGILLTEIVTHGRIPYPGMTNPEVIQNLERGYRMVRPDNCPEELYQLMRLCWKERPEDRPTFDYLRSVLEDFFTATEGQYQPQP
In words: SRC-Inhibitor-Assay, time-resolved fluorescence kinase assay (Lck). The class given is biochemical. As to conditions: ATP 5 μM; peptide 10 μM; enzyme 2.5 U/ml; pre-incubated 15 min at 15° C.
Description: as §1, §2, §3, §4, §5, §6, §7, §8, §9

T1 sequence (P12931 whole entry): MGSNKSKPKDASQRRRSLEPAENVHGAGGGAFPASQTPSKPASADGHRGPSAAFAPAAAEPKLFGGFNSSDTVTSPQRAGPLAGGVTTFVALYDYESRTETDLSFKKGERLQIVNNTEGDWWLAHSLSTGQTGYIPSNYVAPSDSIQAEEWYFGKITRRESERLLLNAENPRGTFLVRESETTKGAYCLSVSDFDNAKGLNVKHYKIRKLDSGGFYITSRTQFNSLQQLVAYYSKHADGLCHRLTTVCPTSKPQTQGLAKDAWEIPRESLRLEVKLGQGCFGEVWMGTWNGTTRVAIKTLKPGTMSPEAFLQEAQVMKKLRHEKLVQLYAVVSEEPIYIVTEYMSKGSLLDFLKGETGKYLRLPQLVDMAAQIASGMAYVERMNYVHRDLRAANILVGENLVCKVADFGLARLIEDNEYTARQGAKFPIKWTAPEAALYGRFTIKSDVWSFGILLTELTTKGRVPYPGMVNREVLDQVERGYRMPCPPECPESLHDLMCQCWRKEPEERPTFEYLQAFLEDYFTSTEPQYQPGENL

With `CS(=O)(=O)NCCNC(=O)c1nc2nc(Nc3ccc(N4CCOCC4)cc3)ncc2cc1-c1ccccc1C(F)(F)F` [Example 11, 2-(4-Morpholin-4-yl-phenylamino)-6-(2-trifluoromethyl-phenyl)-pyrido[2,3-d]pyrimidine-7-carboxylic acid (2-methanesulfonylamino-ethyl)-amide], the pIC50 against Src (p60^c-src) is 8.30 to 9.30; at Lck (p56^lck), 7.70 to 9.00.
Regarding `CNCCNC(=O)c1nc2nc(Nc3cccc(NS(C)(=O)=O)c3)ncc2cc1-c1ccccc1C` [Example 9, 2-(3-Methanesulfonylamino-phenylamino)-6-o-tolyl-pyrido[2,3-d]pyrimidine-7-carboxylic acid (2-methylamino-ethyl)-amide], the figures for the pIC50 against Src (p60^c-src) and on Lck (p56^lck) were 8.30 to 9.30 and 7.70 to 9.00, respectively.
The matching figures for `Cc1ccccc1-c1cc2cnc(Nc3ccc(N4CCOCC4)cc3)nc2nc1C(=O)NCCNS(C)(=O)=O` [Example 5, 2-(4-Morpholin-4-yl-phenylamino)-6-o-tolyl-pyrido[2,3-d]pyrimidine-7-carboxylic acid (2-methanesulfonylamino-ethyl)-amide]: 8.30 to 9.30 and 7.70 to 9.00.
In the case of `CC(=O)Nc1cccc(Nc2ncc3cc(-c4ccccc4C)c(C(=O)NCCNS(C)(=O)=O)nc3n2)c1` [Example 3, 2-(3-Acetylamino-phenylamino)-6-o-tolyl-pyrido[2,3-d]pyrimidine-7-carboxylic acid (2-methanesulfonylamino-ethyl)-amide], the negative-log IC50 (pIC50) was 9.00 against Src (p60^c-src) and 7.93 against Lck (p56^lck).
With `CC(=O)Nc1cccc(Nc2ncc3cc(-c4ccccc4C(F)(F)F)c(C(=O)NC[C@H]4CCCN4)nc3n2)c1` [Example 15, (R)-2-(3-Acetylamino-phenylamino)-6-(2-trifluoromethyl-phenyl)-pyrido[2,3-d]pyrimidine-7-carboxylic acid (pyrrolidin-2-ylmethyl)-amide], the negative logarithm of the IC50 (pIC50) against Src (p60^c-src) was 8.30 to 9.30; against Lck (p56^lck), 7.70 to 9.00.
On the same counts, the results for `O=C(NC[C@H]1CCCN1)c1nc2nc(Nc3ccc(N4CCOCC4)cc3)ncc2cc1-c1ccccc1C(F)(F)F` [Example 14, (R)-2-(4-Morpholin-4-yl-phenylamino)-6-(2-trifluoromethyl-phenyl)-pyrido[2,3-d]pyrimidine-7-carboxylic acid (pyrrolidin-2-ylmethyl)-amide] are 8.30 to 9.30 and 7.70 to 9.00.
As for `Cc1ccccc1-c1cc2cnc(Nc3ccc(N4CCOCC4)cc3)nc2nc1C(=O)NC[C@H]1CCCN1` [Example 7, (R)-2-(4-Morpholin-4-yl-phenylamino)-6-o-tolyl-pyrido[2,3-d]pyrimidine-7-carboxylic acid (pyrrolidin-2-ylmethyl)-amide], the negative-log IC50 (pIC50) against Src (p60^c-src) was 8.30 to 9.30; against Lck (p56^lck) it was 7.70 to 9.00.
On to `CC(=O)Nc1cccc(Nc2ncc3cc(-c4ccccc4C)c(C(=O)NC[C@H]4CCCN4)nc3n2)c1` [Example 1, (R)-2-(3-Acetylamino-phenylamino)-6-o-tolyl-pyrido[2,3-d]pyrimidine-7-carboxylic acid (pyrrolidin-2-ylmethyl)-amide], for which the negative logarithm of the IC50 (pIC50) against Src (p60^c-src) is 9.15; against Lck (p56^lck), 8.10.
`O=C(NC[C@H]1CCCN1)c1nc2nc(Nc3ccc4c(c3)S(=O)(=O)CCO4)ncc2cc1-c1ccccc1C(F)(F)F` [Example 17, (R)-2-(4,4-Dioxo-3,4-dihydro-2H-4lambda*6*-benzo[1,4]oxathiin-6-ylamino)-6-(2-trifluoromethyl-phenyl)-pyrido[2,3-d]pyrimidine-7-carboxylic acid (pyrrolidin-2-ylmethyl)-amide]: the pIC50 against Src (p60^c-src) was 7.30 to 8.30; at Lck (p56^lck), 7.30 to 7.70.
On the same counts, the results for `CS(=O)(=O)NCCNC(=O)c1nc2nc(Nc3ccc4c(c3)S(=O)(=O)CCO4)ncc2cc1-c1ccccc1C(F)(F)F` [Example 2, 2-(4,4-Dioxo-3,4-dihydro-2H-4lambda*6*-benzo[1,4]oxathiin-6-ylamino)-6-(2-trifluoromethyl-phenyl)-pyrido[2,3-d]pyrimidine-7-carboxylic acid (2-methanesulfonylamino-ethyl)-amide] are 7.30 to 8.30 and 7.30 to 7.70.
In the case of `CNCCNC(=O)c1nc2nc(Nc3cccc(NC(C)=O)c3)ncc2cc1-c1ccccc1C` [Example 8, 2-(3-Acetylamino-phenylamino)-6-o-tolyl-pyrido[2,3-d]pyrimidine-7-carboxylic acid (2-methylamino-ethyl)-amide], the negative-log IC50 (pIC50) on Src (p60^c-src) was 8.30 to 9.30; against Lck (p56^lck) it was 7.70 to 9.00.

In general, pIC50 refers to the IC50 on a negative log10 scale, so that one unit is a factor of ten.
